Six compounds from US10421750B2, “Substituted morpholine derivatives having activity against pain” (ESTEVE PHARMACEUTICALS, S.A., priority 2015, dated 2019) can be followed below.

Chain of human σ1 receptor (Q99720 whole entry): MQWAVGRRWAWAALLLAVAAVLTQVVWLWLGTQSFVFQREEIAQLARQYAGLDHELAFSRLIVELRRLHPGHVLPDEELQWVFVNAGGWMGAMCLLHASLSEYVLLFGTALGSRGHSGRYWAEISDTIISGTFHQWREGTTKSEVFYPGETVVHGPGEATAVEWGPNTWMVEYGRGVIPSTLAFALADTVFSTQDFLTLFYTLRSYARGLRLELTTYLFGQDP

The target in the test is human σ1 receptor (Homo sapiens (Human), UniProt Q99720). Description: Human σ1 receptor radioligand assay ([3H](+)-pentazocine, transfected HEK-293 membranes). Conditions: binding to the σ1 receptor expressed as Ki, [3H](+)-pentazocine 5 nM. As for the experimental part:
Human σ1 Receptor Radioligand Assay
To investigate binding properties of test compounds to human σ1 receptor, transfected HEK-293 membranes and [^3H](+)-pentazocine (Perkin Elmer, NET-1056), as the radioligand, were used. The assay was carried out with 7 μg of membrane suspension, 5 nM of [^3H](+)-pentazocine in either absence or presence of either buffer or 10 μM Haloperidol for total and non-specific binding, respectively. Binding buffer contained Tris-HCl 50 mM at pH 8. Plates were incubated at 37° C. for 120 minutes. After the incubation period, the reaction mix was then transferred to MultiScreen HTS, FC plates (Millipore), filtered and plates were washed 3 times with ice-cold 10 mM Tris-HCL (pH7.4). Filters were dried and counted at approximately 40% efficiency in a MicroBeta scintillation counter (Perkin-Elmer) using EcoScint liquid scintillation cocktail
Broadly, the Ki is a dissociation constant, usually derived from enzyme kinetics or from competition with a known ligand. A lower Ki goes with higher affinity. The compound `O=C1N(c2ccccc2)CC(C2CN(Cc3ccccc3)C2)OC12CC2` (stereo not drawn) [Example 45, 5-(1-benzylazetidin-3-yl)-7-phenyl-4-oxa-7-azaspiro[2.5]octan-8-one] gave a Ki below 100 nM.
As for `COc1ccc(CN2CC(C3CCN(CC(C)C)CC3)OC3(CC3)C2)cc1` (stereo not drawn) [Example 46, 5-(1-isobutylpiperidin-4-yl)-7-(4-methoxybenzyl)-4-oxa-7-azaspiro[2.5]octane], the Ki is below 500 nM.
Compound `COc1ccc(CN2CC(C3CCN(CCC(C)C)CC3)OC3(CC3)C2)cc1` (stereo not drawn) [Example 47, 5-(1-isopentylpiperidin-4-yl)-7-(4-methoxybenzyl)-4-oxa-7-azaspiro[2.5]octane] gave a Ki below 100 nM.
Next, `COc1ccc(CN2CCOC(C3CCN(Cc4ccccc4)CC3)C2)cc1` (stereo not drawn) [Example 49, 2-(1-benzylpiperidin-4-yl)-4-(4-methoxybenzyl)morpholine]: below 100 nM; `CCN1CCOC(C2CCN(Cc3ccccc3)CC2)C1` (stereo not drawn) [Example 50, 2-(1-benzylpiperidin-4-yl)-4-ethylmorpholine]: below 100 nM; `CC(C)CCN1CCC(C2CN(C(=O)c3ccccc3)CC3(CC3)O2)CC1` (stereo not drawn) [Example 51, (5-(1-Isopentylpiperidin-4-yl)-4-oxa-7-azaspiro[2.5]octan-7-yl)(phenyl)methanone]: below 100 nM.
